Assay results reported in patent US10968214B2, “KRas G12C inhibitors” (Eli Lilly and Company, priority 2018, dated 2021).
Like-named read-outs stand apart in the source and are kept apart here.

Key:
CT-26-H4/KRas G12C = CT-26-H4/KRas G12C mouse syngeneic model, immuno-therapy combination; format: in vivo; details: Example 1 30 mg/kg BID × 21 PO, PD-L1 antibody 500 ug/mouse Q7D × 3 IP, PD-1 antibody 250 ug/mouse BIW × 3 IP
Text: A mouse syngeneic model is used to evaluate the effects of KRas G12C inhibition and immuno-therapy combination. In this model, the KRas G12D mutation is converted to KRas G12C mutation by CRISPR knock-in in the CT-26 cell line, a mouse colorectal tumor cell line. The KRas G12C knock-in is confirmed by genetic and functional characterization. The engineered cell line is named CT-26-H4/KRas G12C. These cells are implanted to the Balb/c mice, and the compound treatment is started 6 days post tumor cell implantation. PD-1 and PD-L1 inhibitors are known in the art and include durvalumab, pembrolizumab, and nivolumab. […] After 3 weeks, compound treatment is stopped and all tumors in monotherapy groups with the exception of 1 animal in the anti-PD-1 group started to regrow. However, the tumors in the two combination groups have no signs of regrowth.

HCC827 = test: CellTiterGlo Cell Proliferation Assay, HCC827; format: cell-based; details: Homo sapiens, KRas wild type, lung, 96 hr
Method: (§1) A panel of tumor cell lines harboring KRas G12C or other KRas mutations are collected (Table 6). All cell lines are from ATCC or other sources indicated.
(§2) Typically cells are cultured in RPMI1640 or Dulbecco's modified Eagle's medium (DMEM, GIBCO) supplemented with 10% FBS (GIBCO, Invitrogen). For 2D culture cells (4×10^3/well) maintained in growth medium described above, are plated onto 96 well tissue culture plates Corning® Cat. 3603) a day before the treatment. For 3D culture 8000 cells/well are seeded onto 96 well ultra-low attachment tissue culture plates (Corning, #3474). The cells are treated compound for 96 hr, and then are analyzed for viability using the CellTiterGlo® Luminescent Cell Viability Assay® (Promega #G7572 for 2D and Promega #G9683 for 3D cultures) according to manufacturer's instructions and an EnVision™ plate reader. Nonlinear regression and sigmoidal dose-response curves are used to calculate the half maximal inhibitory concentration (IC50) with GraphPad Prism 4® software.

EL3187 = test: CellTiterGlo Cell Proliferation Assay, EL3187; format: cell-based; details: KRas G12C, Lung, 96 hr
Method: as §1, §2

[1] = system: pMEK in H2122 xenograft tumors; test: In vivo target inhibition/PD, H2122 xenograft, pMEK; details: Mus musculus, NCI-H2122; for inhibition at 10 mg/kg: 10 mg/kg single dose
Method: To evaluate in vivo target inhibition and anti-tumor efficacy of a compound, Human lung cancer cells, H358 or H2122 are implanted into nude mice xenograft tumor models. Either H358 or H2122 cells (10×10^6 in a 1:1 Matrigel® mix, 0.2 mL total volume) are implanted by subcutaneous injection in hind leg of nude female mice (Harlan Laboratories). A total of 5 mice each group are used for efficacy study, and a total of 3-4 mice each group are used for target engagement and PD study. Treatment is initiated with oral administration (gavage) of a test compound or vehicle (20% Captisol®, 25 mM phosphate, pH 2.0 in 0.2 mL volume when the tumor size reaches approximately […]. Tumor growth and body weight are monitored over time to evaluate efficacy and signs of toxicity. Bidimensional measurements of tumors are performed twice a week and tumor volumes are calculated based on mid-axis length and mid-axis width. Tumor volume data are transformed to a log scale to equalize variance across time and treatment groups. The log volume data are analyzed with a two-way repeated measures analysis of variance by time and treatment using the mixed procedures in SAS software (version 8.2). The correlation model for the repeated measures is spatial power. Treated groups are compared to the control group at each time point. The mixed procedure is also used separately for each treatment group to calculate adjusted means and standard errors at each time point. Both analyses account for the autocorrelation within each animal. The adjusted means and standard errors are plotted for each treatment group versus time.
For in vivo target inhibition and PD analysis, tumors are ground by mortar and pestle on dry ice and tumor fragments are added to 800 μL of lysis buffer containing 1% Triton X100, 25 mM Tris pH 7.5, 150 mM NaCl, 1 mM EDTA, and 1 mM EGTA with Halt protease and phosphatase inhibitor cocktail (Thermo Scientific, cat. no. 1861281) in lysing matrix D tubes (MP Biomedical®, cat. no. 6913-500) with one additional large bead (MP Biomedical® ¼″ ceramic sphere bead cat. no. 6540-412) per tube. Tumor fragments are homogenized in a Thermo Bio101® fast prep (FP120) at setting 4 for […] while cold for a total of 2 times. Lysates are spun at 14,000 rpm for 10 min at 4° C. to clarify. Protein estimation is done on the lysate supernatant using a BioRad Dc® protein assay and lysates are diluted in complete lysis/binding buffer from the Ras GTPase Chemi ELISA Kit® (Active Motif, cat. no. 52097). The active KRas ELISA was performed as follows: Glutathione-coated ELISA wells were incubated with diluted RAF1-GST in complete lysis/binding buffer for 1 hr at 4° C. with gentle agitation. Wells are washed 3 times with wash buffer and 100 μg of lysates are added to each well and incubated at RT for 1 hr with mild agitation. The wells are washed an additional 3 times, then primary antibody, diluted in antibody binding buffer, is added to each well. The plates are incubated for 1 hr. The wells are washed 3 more times before adding HRP-conjugated secondary antibody, diluted in antibody binding buffer, to each well. The plates are incubated at RT for 1 hr. ELISA wells are washed 4 times, chemiluminescent reagents is added and then luminescence is read. For pERK Meso Scale Discovery ELISA, 25 μg of protein containing 0.1% SDS is used; for pMEK Meso Scale Discovery ELISA, 50 μg of protein without SDS is used. Meso Scale Discovery Whole Cell Lysate Kits for pERK and pMEK are provided by Meso Scale Discovery.
After a single dose, the tumor samples are harvested at different time points. The tumor lysates are prepared as described above. The inhibition of pERK, pMEK, and active KRas is measured as described above.

H23 = test: CellTiterGlo Cell Proliferation Assay, H23; format: cell-based; details: Homo sapiens, NCI-H23, KRas G12C, Lung, 96 hr
Method: as §1, §2

[2] = read-out: IC50 (μM) in 2 D cell proliferation
[3] = read-out: IC50 (μM) in 3 D spheroid cell proliferation

C=CC(=O)N1CCN(c2ncnc3c(F)c(-c4ccc(F)c5sc(N)nc45)c(Cl)cc23)CC1 [Example 1, 1-{4-[7-(2-Amino-7-fluoro-1,3-benzothiazol-4-yl)-6-chloro-8-fluoroquinazolin-4-yl]piperazin-1-yl}prop-2-en-1-one]
Complete Response (% CR) (CT-26-H4/KRas G12C; 40 days post treatment): 0%
Complete Response (CR)/group mice (CT-26-H4/KRas G12C; 40 days post treatment): 0/10
% Tumor Growth Inhibition (CT-26-H4/KRas G12C; End of treatment at day 28): 96%
Complete Response (% CR) (CT-26-H4/KRas G12C; End of treatment at day 28): 10%
Complete Response (CR)/group mice (CT-26-H4/KRas G12C; End of treatment at day 28): 1/10
IC50 (HCC827; [2]): 18.9 µM
IC50 (HCC827; [3]): 4.63 µM
IC50 (EL3187; [2]): 0.003 µM
IC50 (EL3187; [3]): 0.013 µM
inhibition at 10 mg/kg ([1]; H2122 xenograft, 2 hr, read-out: % Inhibition pMEK): 45.9%
inhibition at 10 mg/kg ([1]; H2122 xenograft, 4 hr, read-out: % Inhibition pMEK): 60.4%
inhibition at 10 mg/kg ([1]; H2122 xenograft, 8 hr, read-out: % Inhibition pMEK): 25.7%
inhibition at 10 mg/kg ([1]; H2122 xenograft, 12 hr, read-out: % Inhibition pMEK): -0.4%
inhibition at 10 mg/kg ([1]; H2122 xenograft, 24 hr, read-out: % Inhibition pMEK): -8.4%
inhibition at 10 mg/kg ([1]; H2122 xenograft, from 2-12 hr, read-out: pMEK inhibition): 0 to 60%
inhibition at 30 mg/kg ([1]; H2122 xenograft, 30 mg/kg single dose, 2 hr, read-out: % Inhibition pMEK): 62.4%
inhibition at 30 mg/kg ([1]; H2122 xenograft, 30 mg/kg single dose, 4 hr, read-out: % Inhibition pMEK): 77.5%
inhibition at 30 mg/kg ([1]; H2122 xenograft, 30 mg/kg single dose, 8 hr, read-out: % Inhibition pMEK): 72.2%
inhibition at 30 mg/kg ([1]; H2122 xenograft, 30 mg/kg single dose, 12 hr, read-out: % Inhibition pMEK): 44.7%
inhibition at 30 mg/kg ([1]; H2122 xenograft, 30 mg/kg single dose, 24 hr, read-out: % Inhibition pMEK): -15.5%
inhibition at 100 mg/kg ([1]; H2122 xenograft, 100 mg/kg single dose, 4 hr): 79.7%
inhibition at 30 mg/kg ([1]; read-out: pMEK inhibition): 45 to 78%
IC50 (H23; [2]): 0.08 µM
IC50 (H23; [3]): 0.031 µM
